# In article PMC8999917, “Structure–Activity Relationship of Synthetic Ginkgolic Acid Analogs for Treating Type 2 Diabetes by PTPN9 Inhibition” (International Journal of Molecular Sciences, 2022):
# What was measured:
# [1] = tested on: 3T3-L1 adipocytes; test: 2-NBDG glucose uptake assay in differentiated 3T3-L1 adipocytes; type: cell-based, mouse; settings: 10 µM, plate reader fluorescence
# Protocol: PTPN9 inhibitors have been reported to increase glucose uptake. To clarify the antidiabetic effects of GA analogs, a 2-NBDG (a fluorescent glucose probe) uptake assay was performed using differentiated 3T3-L1 adipocytes and C2C12 myotubes. After 16 h of starvation, differentiated 3T3-L1 adipocytes were incubated with compounds 1e and 1f for another 1 h. The cells were subsequently incubated with 2-NBDG for 30 min and washed with PBS before quantifying the fluorescence of 2-NBDG taken up by the cells. The 2-NBDG uptake-increasing effects of GA and its analogs in 3T3-L1 cells were monitored via confocal microscopy. The blank group was set in the absence of 2-NBDG but was treated with DMSO to determine the basal fluorescence levels in 3T3-L1 adipocytes (Figure 4A, Basal); in the negative control group, 3T3-L1 adipocytes were treated with 2-NBDG and DMSO for the evaluation of basal glucose uptake levels (Figure 4A, DMSO). […] Furthermore, to quantify 2-NBDG uptake, fluorescence intensity (Ex/Em = 485/535 nm) was measured using a plate reader. […] After incubation, the cells were washed with pre-cold PBS, and the fluorescence intensity was measured using a fluorescence microplate reader (Victor^TM X4, PerkinElmer, Waltham, MA, USA) (Ex/Em = 485/535 nm). […]
# [2] = tested on: Akt phosphorylation in PA-induced insulin-resistant C2C12 cells; test: Palmitic acid-induced insulin resistance in C2C12 myotubes (p-Akt); type: cell-based, mouse; settings: PA (250 µM, 16 h)-treated C2C12, 5 μM compound for 30 min with 100 nM insulin
# Protocol: Since insulin plays an important role in regulating glucose metabolism through the redistribution of GLUT4 from intracellular vesicles to the cell surface, it is important to describe the interaction between 1e and insulin in the Akt pathway. […] Next, we evaluated the protective effects of 1e against PA-induced insulin resistance in C2C12 myotubes. To generate an insulin resistance model, C2C12 myotubes were treated with 250 µM PA in a serum-free medium for 16 h. Akt phosphorylation levels in PA-treated C2C12 cells decreased by 50% compared to levels in normal C2C12 cells (Figure 6C). Furthermore, in the presence of insulin and GA, Akt phosphorylation levels decreased only by 30% compared to levels in normal cells. […] In addition, the GA analogs induced no cytotoxic effects in C2C12 muscle cells (data not shown). […] The expression levels of glucose uptake-related proteins were determined via Western blotting, as previously described. In brief, differentiated 3T3-L1 cells were plated in six-well plates at a 1.5 × 10^4 cells/well density in a final volume of 2 mL. […] Secondary antibodies were added to the membranes at a concentration of 1:2000 for 1 h at room temperature, and immunoreactive bands were detected via ECL (GE Healthcare Korea Co., Ltd., Incheon, Korea). […]
smiles,measurement,setting,value
CCCCCCCCCCCCCOc1cccc(O)c1C(=O)O [Compound 1e],2-NBDG uptake increase compared to the DMSO control,[1],approximately 2.0 fold
same,Akt phosphorylation in PA-induced insulin-resistant C2C12 cells,[2],restoring it to levels similar to those in the non-insulin-resistant group
